Data from PubChem BioAssay (NCI).
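48-hour exposure; five concentrations; linearly interpolated endpoints. TGI marks complete inhibition of growth.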

What was measured:
Test in all cases: NCI tumour cell line growth inhibition, 48 h
HCC-2998 colon = system: HCC-2998 colon
A549 NSCLC = system: A549 NSCLC
KM12 colon = system: KM12 colon
SW-620 colon = system: SW-620 colon
RPMI-8226 leukemia = system: RPMI-8226 leukemia
UACC-62 melanoma = system: UACC-62 melanoma
SK-MEL-5 melanoma = system: SK-MEL-5 melanoma
U251 CNS = system: U251 CNS
SF-539 CNS = system: SF-539 CNS
LOX IMVI melanoma = system: LOX IMVI melanoma
UO-31 renal = system: UO-31 renal
EKVX NSCLC = system: EKVX NSCLC
A498 renal = system: A498 renal
CCRF-CEM leukemia = system: CCRF-CEM leukemia
SF-295 CNS = system: SF-295 CNS
HT29 colon = system: HT29 colon
OVCAR-3 ovarian = system: OVCAR-3 ovarian
SNB-19 CNS = system: SNB-19 CNS
786-0 renal = system: 786-0 renal
NCI-H23 lung = system: NCI-H23 lung
SK-OV-3 ovarian = system: SK-OV-3 ovarian
COLO 205 colon = system: COLO 205 colon
SF-268 CNS = system: SF-268 CNS
HCT-15 colon = system: HCT-15 colon
NCI-H522 lung = system: NCI-H522 lung
M14 melanoma = system: M14 melanoma
PC-3 prostate = system: PC-3 prostate
CAKI-1 renal = system: CAKI-1 renal
SK-MEL-2 melanoma = system: SK-MEL-2 melanoma
MCF7 breast = system: MCF7 breast
NCI/ADR-RES ovarian = system: NCI/ADR-RES ovarian
BT-549 breast = system: BT-549 breast
OVCAR-5 ovarian = system: OVCAR-5 ovarian
SR leukemia = system: SR leukemia
HOP-62 NSCLC = system: HOP-62 NSCLC
DU-145 prostate = system: DU-145 prostate
MDA-N = system: MDA-N
MOLT-4 leukemia = system: MOLT-4 leukemia
UACC-257 melanoma = system: UACC-257 melanoma
OVCAR-4 ovarian = system: OVCAR-4 ovarian
HCT-116 colon = system: HCT-116 colon
OVCAR-8 ovarian = system: OVCAR-8 ovarian
IGROV1 ovarian = system: IGROV1 ovarian
NCI-H460 lung = system: NCI-H460 lung
ACHN renal = system: ACHN renal
MDA-MB-435 = system: MDA-MB-435
SK-MEL-28 melanoma = system: SK-MEL-28 melanoma
MALME-3M melanoma = system: MALME-3M melanoma
HL-60(TB) leukemia = system: HL-60(TB) leukemia
K-562 leukemia = system: K-562 leukemia
HS 578T breast = system: HS 578T breast
RXF 393 renal = system: RXF 393 renal
SN12C renal = system: SN12C renal
HOP-92 NSCLC = system: HOP-92 NSCLC
TK-10 renal = system: TK-10 renal
MDA-MB-231 breast = system: MDA-MB-231 breast
NCI-H226 lung = system: NCI-H226 lung
SNB-75 CNS = system: SNB-75 CNS

In the case of `CCN(CC)c1ccc2cc(-c3nc(-c4ccccc4)n[nH]3)c(=O)oc2c1`, the TGI (HCC-2998 colon) is reported as > 100 µM, the TGI (A549 NSCLC) is reported as > 100 µM and the TGI (KM12 colon) is reported as > 100 µM. The TGI (SW-620 colon) was > 100 µM, the TGI (RPMI-8226 leukemia) was > 100 µM and the TGI (UACC-62 melanoma) was > 100 µM. For the same compound, the TGI (SK-MEL-5 melanoma) was > 100 µM, the TGI (U251 CNS) was 96.2 µM and the TGI (SF-539 CNS) was 45.6 µM. The TGI (LOX IMVI melanoma) was > 100 µM, the TGI (UO-31 renal) was 20.4 µM and the TGI (EKVX NSCLC) was 88.7 µM. For the same compound, the TGI (A498 renal) was 90.1 µM, the TGI (CCRF-CEM leukemia) was > 100 µM and the TGI (SF-295 CNS) was > 100 µM. For the same compound, the TGI (HT29 colon) was > 100 µM, the TGI (OVCAR-3 ovarian) was > 100 µM and the TGI (SNB-19 CNS) was 61.5 µM. It also gave a TGI (786-0 renal) of 32.1 µM, a TGI (NCI-H23 lung) of 44.6 µM and a TGI (SK-OV-3 ovarian) of 39.4 µM. The TGI (COLO 205 colon) was > 100 µM, the TGI (SF-268 CNS) was > 100 µM and the TGI (HCT-15 colon) was > 100 µM. For the same compound, the TGI (NCI-H522 lung) was > 100 µM, the TGI (M14 melanoma) was > 100 µM and the TGI (PC-3 prostate) was 70.1 µM. The TGI (CAKI-1 renal) was 73.8 µM, the TGI (SK-MEL-2 melanoma) was > 100 µM and the TGI (MCF7 breast) was > 100 µM. The TGI (NCI/ADR-RES ovarian) was > 100 µM, the TGI (BT-549 breast) was 89.3 µM and the TGI (OVCAR-5 ovarian) was > 100 µM. The TGI (SR leukemia) was > 100 µM, the TGI (HOP-62 NSCLC) was 22 µM and the TGI (DU-145 prostate) was 40.4 µM. For the same compound, the TGI (MDA-N) was > 100 µM, the TGI (MOLT-4 leukemia) was > 100 µM and the TGI (UACC-257 melanoma) was > 100 µM. The TGI (OVCAR-4 ovarian) was 53.7 µM, the TGI (HCT-116 colon) was > 100 µM and the TGI (OVCAR-8 ovarian) was 28.7 µM. For the same compound, the TGI (IGROV1 ovarian) was 57.9 µM, the TGI (NCI-H460 lung) was > 100 µM and the TGI (ACHN renal) was > 100 µM. The TGI (MDA-MB-435) was > 100 µM, the TGI (SK-MEL-28 melanoma) was > 100 µM and the TGI (MALME-3M melanoma) was > 100 µM. For the same compound, the TGI (HL-60(TB) leukemia) was > 100 µM, the TGI (K-562 leukemia) was > 100 µM and the TGI (HS 578T breast) was > 100 µM.
With `CCOP(=O)(OCC)/C(C#N)=C/c1cnc(C)[nH]1` the TGI (HCC-2998 colon) was > 100 µM, the TGI (A549 NSCLC) was > 100 µM and the TGI (KM12 colon) was > 100 µM. The TGI (SW-620 colon) was > 100 µM, the TGI (RPMI-8226 leukemia) was > 100 µM and the TGI (RXF 393 renal) was > 100 µM. For the same compound, the TGI (UACC-62 melanoma) was > 100 µM, the TGI (SK-MEL-5 melanoma) was > 100 µM and the TGI (U251 CNS) was > 100 µM. The TGI (SF-539 CNS) was > 100 µM, the TGI (LOX IMVI melanoma) was > 100 µM and the TGI (UO-31 renal) was > 100 µM. The TGI (EKVX NSCLC) was > 100 µM, the TGI (A498 renal) was > 100 µM and the TGI (CCRF-CEM leukemia) was > 100 µM. For the same compound, the TGI (SF-295 CNS) was > 100 µM, the TGI (HT29 colon) was > 100 µM and the TGI (OVCAR-3 ovarian) was > 100 µM. The TGI (SNB-19 CNS) was > 100 µM, the TGI (786-0 renal) was > 100 µM and the TGI (NCI-H23 lung) was > 100 µM. The TGI (SK-OV-3 ovarian) was > 100 µM, the TGI (COLO 205 colon) was > 100 µM and the TGI (SF-268 CNS) was > 100 µM. For the same compound, the TGI (HCT-15 colon) was > 100 µM, the TGI (NCI-H522 lung) was > 100 µM and the TGI (M14 melanoma) was > 100 µM. For the same compound, the TGI (PC-3 prostate) was > 100 µM, the TGI (CAKI-1 renal) was > 100 µM and the TGI (SK-MEL-2 melanoma) was > 100 µM. The TGI (MCF7 breast) was > 100 µM, the TGI (NCI/ADR-RES ovarian) was > 100 µM and the TGI (BT-549 breast) was > 100 µM. For the same compound, the TGI (OVCAR-5 ovarian) was > 100 µM, the TGI (SN12C renal) was > 100 µM and the TGI (SR leukemia) was > 100 µM. The TGI (HOP-62 NSCLC) was > 100 µM, the TGI (DU-145 prostate) was > 100 µM and the TGI (MDA-N) was > 100 µM. For the same compound, the TGI (MOLT-4 leukemia) was > 100 µM, the TGI (UACC-257 melanoma) was > 100 µM and the TGI (OVCAR-4 ovarian) was > 100 µM. The TGI (HCT-116 colon) was > 100 µM, the TGI (OVCAR-8 ovarian) was > 100 µM and the TGI (IGROV1 ovarian) was > 100 µM. The TGI (HOP-92 NSCLC) was > 100 µM, the TGI (NCI-H460 lung) was > 100 µM and the TGI (ACHN renal) was > 100 µM. For the same compound, the TGI (MDA-MB-435) was > 100 µM, the TGI (TK-10 renal) was > 100 µM and the TGI (SK-MEL-28 melanoma) was > 100 µM. The TGI (MALME-3M melanoma) was > 100 µM, the TGI (HL-60(TB) leukemia) was > 100 µM and the TGI (MDA-MB-231 breast) was > 100 µM. For the same compound, the TGI (K-562 leukemia) was > 100 µM, the TGI (HS 578T breast) was > 100 µM and the TGI (NCI-H226 lung) was > 100 µM. The TGI (SNB-75 CNS) was > 100 µM.
